From patent US20120301895A1, “METHODS OF MODULATING BINDING OF SON OF SEVENLESS TO PHOSPHATIDIC ACID AND IDENTIFYING COMPOUNDS THAT MODULATE SUCH BINDING” (THE RESEARCH FOUNDATION OF STATE UNIVERSITY OF NEW YORK, priority 2007, published 2012)

Columns and labels:
[1] = system: MDA-MB-231 human breast cancer cells; conditions: Wolf et al. 2007; cited from earlier work
S6K and 4E-BP1 = experiment: Phosphorylation of mTOR substrates S6K and 4E-BP1 in MDA-MB-231 cells (Western blot); assay type: cell-based, human; conditions: honokiol 20 μM, 0.5% serum
Method: In FIG. 15A, MDA-MB-231 cells were plated in DMEM with 10% serum. 48 hr later the cells were shifted to 0.5% for 16 hr. Honokiol (20 μM) or control ethanol was then added for the indicated times. The cells were then harvested and analyzed for levels of S6K, phosphorylated S6K (P-S6K), 4E-BP1, and P-4E-BP1 by Western blot analysis as described previously (Zheng et al., “Phospholipase D Couples Survival and Migration Signals in Response to Stress in Human Breast Cancer Cells,” J. Biol. Chem. 281:15862-8 (2006), which is hereby incorporated by reference in its entirety). In FIG. 15B, 786-O cells were plated and then shifted to media containing 0.5% serum 24 hr later. 18 hr later, the cells were treated with 1-Bt0H (0.8%), honokiol (Hon) (20 μM), and t-BtOH (0.8%) as indicated. Cell lysates were prepared 4 hr later and examined for HIF2α and actin expression by Western lot analysis. The experiment shown is representative of two independent experiments.
Extraction of proteins from cultured cells and Western blot analysis of extracted proteins was performed using the ECL system (Amersham) as described previously (Chen et al., “Alternative Phospholipase D/mTOR Survival Signal in Human Breast Cancer Cells,” Oncogene 24:672-9 (2005), which is hereby incorporated by reference in its entirety). […]

SMILES: C=CCc1ccc(O)c(-c2ccc(O)c(CC=C)c2)c1 [honokiol, Honokiol]
- growth of MDA-MB-231 cells in mouse xenograft [1]: suppress the growth
- phosphorylation of 4E-BP1 (S6K and 4E-BP1): suppressed
- phosphorylation of S6K (S6K and 4E-BP1): suppressed
